Measurements taken from patent US6472348B1, “Pyridone derivatives and herbicides” (Kumiai Chemical Industry Co., Ltd., priority 1996, dated 2002).

What was measured:
[1] = system: pale smartweed (Po); experiment: Test Example 4: crop plant selectivity by upland field soil treatment (cotton), herbicidal effects; type: in vivo; set-up: scale not given here; settings: evaluated 21st day after application
Method in brief: (§1)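 Cotton is sown alongside weeds in pots of sand, covered with soil, and the soil surface is treated. After greenhouse growth, herbicidal activity and phytotoxicity are graded on the 21st day.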

[2] = system: China jute (Ab); experiment: as above; type: in vivo; set-up: scale not given here; settings: evaluated 21st day after application
Method in brief: as §1

[3] = system: common lambsquarters (Ch); experiment: as above; type: in vivo; set-up: scale not given here; settings: evaluated 21st day after application
Method in brief: as §1

[4] = system: slender amaranth (Am); experiment: as above; type: in vivo; set-up: scale not given here; settings: evaluated 21st day after application
Method in brief: as §1

[5] = system: green foxtail (Se); experiment: as above; type: in vivo; set-up: scale not given here; settings: evaluated 21st day after application
Method in brief: as §1

[6] = system: rice flatsedge (Ci); experiment: Test Example 2: herbicidal effects by upland field soil treatment; type: in vivo; settings: 100 g of the active ingredient per 10 ares;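 note: grade of growth control; 5 = at least 90%; 4 = 70 to 90%; 3 = 50 to 70%; 2 = 30 to 50%; 1 = 10 to 30%; 0 = under 10%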
From the text: (Test on Herbicidal Effects by Upland Field Soil Treatment)

[7] = system: corn (Ze); experiment: Test Example 7: crop plant selectivity by upland field soil treatment (corn), phytotoxicity; type: in vivo; set-up: scale not given here; settings: 21st day after application
Method in brief: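 Corn and weeds (green foxtail, pale smartweed, slender amaranth, common lambsquarters, China jute) sown in sand-filled pots, covered with soil and treated by soil application. Grown in a greenhouse; herbicidal effect and crop phytotoxicity scored on day 21 after application using a fixed rating scale.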

[8] = system: wheat (Tr); experiment: Test Example 9: crop plant selectivity by upland field foliage treatment (wheat), phytotoxicity; settings: dose 1.6 g ai/10a, 14th day after treatment;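 note: grade of crop injury; 5 = at least 90%; 4 = 70 to 90%; 3 = 50 to 70%; 2 = 30 to 50%; 1 = 10 to 30%; 0 = under 10%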
Method in brief: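 Wheat and weeds sown in sand-filled pots, grown 2 weeks in a greenhouse, then foliage-treated. Herbicidal effect and crop phytotoxicity were scored 14 days after treatment against a rating scale.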

[9] = system: pale smartweed (Po); experiment: Test Example 3: herbicidal effects by upland field foliage treatment; type: in vivo; set-up: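 grade of growth control; 5 = at least 90%; 4 = 70 to 90%; 3 = 50 to 70%; 2 = 30 to 50%; 1 = 10 to 30%; 0 = under 10%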
Method in brief: (§2)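 Test plants had been raised from seed for 2 weeks in a greenhouse, in soil-covered sand pots of 120 cm^2, and were returned there after spraying.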

[10] = system: barnyardgrass (Ec); experiment: as above; type: in vivo; set-up: scale not given here
Method in brief: as §2

[11] = 21st day after the application, index 0-5 of Table 47
[12] = 100 g of the active ingredient per 10 ares, evaluated on the 14th day after treatment
[13] = evaluated on the 21st day after application
[14] = 100 g active ingredient per 10 ares, evaluated 14th day after treatment

Row | SMILES | Herbicidal effects Po ([1]; dose 6.3 g ai/10 a) | Herbicidal effects Ab ([2]; dose 6.3 g ai/10 a) | Herbicidal effects Ch ([3]; dose 6.3 g ai/10 a) | Herbicidal effects Am ([4]; dose 6.3 g ai/10 a) | Herbicidal effects Se ([5]; dose 6.3 g ai/10 a) | Herbicidal effects Ci [6, 11] | Phytotoxicity Ze ([7]; dose 6.3 g ai/10a) | Phytotoxicity Tr [8] | Herbicidal effects Po [9, 12] | Herbicidal effects Ec [10, 12] | Herbicidal effects Po ([1]; dose 1.6 g ai/10 a) | Herbicidal effects Ab ([2]; dose 1.6 g ai/10 a) | Herbicidal effects Ch ([3]; dose 1.6 g ai/10 a) | Herbicidal effects Am ([4]; dose 1.6 g ai/10 a) | Herbicidal effects Se ([5]; dose 1.6 g ai/10 a) | Phytotoxicity Ze ([7]; dose 1.6 g ai/10a) | Herbicidal effects Ci [6, 13] | Herbicidal effects Po [9, 14] | Herbicidal effects Ec [10, 14]
1 | C#CCSc1cc(-c2ccc(C(F)(F)F)n(C)c2=O)c(F)cc1Cl [1-44] | 5 | 5 | 5 | 5 | 5 | 5 | 1 | 2 | 5 | 5 |  |  |  |  |  |  |  |  | 
2 | CCOC(=O)c1cc(-c2ccc(C(F)(F)F)n(C)c2=O)c(F)cc1Cl [1-65] | 5 | 5 | 5 | 5 | 5 | 5 | 2 | 2 | 5 | 5 | 5 | 5 | 5 | 5 | 5 | 1 |  |  | 
3 | COCSc1cc(-c2ccc(C(F)(F)F)n(C)c2=O)c(F)cc1Cl [1-91] | 5 | 5 | 5 | 5 | 5 | 5 | 2 | 2 | 5 | 5 | 5 | 5 | 5 | 5 | 5 | 1 |  |  | 
4 | Cn1c(C(F)(F)F)ccc(-c2cc(OCC3CC3)c(Cl)cc2F)c1=O [1-160] | 5 | 5 | 5 | 5 | 5 | 5 | 1 | 2 | 5 | 5 |  |  |  |  |  |  |  |  | 
5 | Cn1c(C(F)(F)F)ccc(-c2cc(OCCCl)c(Cl)cc2F)c1=O [1-171] | 5 | 5 | 5 | 5 | 5 |  | 0 | 2 | 5 | 5 |  |  |  |  |  |  | 5 |  | 
6 | C#CCOc1cc(-c2ccc(C(F)(F)F)n(N)c2=O)c(F)cc1Cl [1-178] | 5 | 5 | 5 | 5 | 5 |  |  | 2 | 5 | 5 | 5 | 5 | 5 | 5 | 5 | 2 | 5 |  | 
7 | COc1cc(-c2ccc(C(F)(F)F)n(N)c2=O)c(F)cc1Cl [1-179] | 5 | 5 | 5 | 5 | 5 |  | 1 | 2 | 5 | 5 |  |  |  |  |  |  | 5 |  | 
8 | C#CC(C)Oc1cc(Cl)cc(F)c1-c1ccc(C(F)(F)F)n(C)c1=O (stereo not shown) [1′-5] | 5 | 5 | 5 | 5 | 5 |  | 2 | 1 |  |  | 5 | 5 | 5 | 5 | 4 | 1 | 5 | 5 | 5
9 | C=CC(C)Oc1cc(-c2ccc(C(F)(F)F)n(C)c2=O)c(F)cc1Cl (stereo not shown) [Compound 1-182] | 5 | 5 | 5 | 5 | 5 |  | 1 | 1 | 5 | 5 |  |  |  |  |  |  | 5 |  | 
10 | CCON=Cc1cc(-c2ccc(C(F)(F)F)n(C)c2=O)c(F)cc1Cl [Compound 1-187] | 5 | 5 | 5 | 5 | 5 |  | 1 | 2 |  |  |  |  |  |  |  |  | 5 | 5 | 5
11 | CCOC(=O)CON=Cc1cc(-c2ccc(C(F)(F)F)n(C)c2=O)c(F)cc1Cl [Compound 1-191] | 5 | 5 | 5 | 5 | 5 |  | 1 | 2 |  |  |  |  |  |  |  |  | 5 | 5 | 5
12 | C=CC(O)c1cc(-c2ccc(C(F)(F)F)n(C)c2=O)c(F)cc1Cl (stereo not shown) [Compound 1-197] | 5 | 5 | 5 | 5 | 5 |  | 1 | 2 |  |  |  |  |  |  |  |  | 5 | 5 | 5
13 | C#CC(O)c1cc(-c2ccc(C(F)(F)F)n(C)c2=O)c(F)cc1Cl (stereo not shown) [Compound 1-202] | 5 | 5 | 5 | 5 | 5 |  |  | 2 |  |  | 5 | 5 | 5 | 5 | 5 | 1 | 5 | 5 | 5
14 | CSCOc1cc(-c2ccc(C(F)(F)F)n(C)c2=O)c(F)cc1Cl [Compound 1-208] | 4 | 5 | 5 | 5 | 5 |  | 1 | 2 |  |  |  |  |  |  |  |  | 5 | 5 | 5
15 | C#CCN1C(=O)COc2cc(Cl)c(-c3ccc(C(F)(F)F)n(C)c3=O)cc21 [Compound 2-25] | 5 | 5 | 5 | 5 | 5 |  |  | 2 |  |  | 5 | 5 | 5 | 5 | 5 | 1 | 5 | 5 | 5
16 | C=CCN1C(=O)COc2cc(Cl)c(-c3ccc(C(F)(F)F)n(C)c3=O)cc21 [Compound 2-26] | 5 | 5 | 5 | 5 | 5 |  | 1 | 2 |  |  |  |  |  |  |  |  | 5 | 5 | 5
17 | Cc1cc2c(-c3ccc(C(F)(F)F)n(C)c3=O)c(F)cc(Cl)c2o1 [Compound 4-1] | 5 | 5 | 5 | 5 | 5 |  | 1 | 2 |  |  | 5 | 5 | 5 | 5 | 5 | 0 | 5 | 5 | 5
18 | CCc1cc2c(-c3ccc(C(F)(F)F)n(C)c3=O)c(F)cc(Cl)c2o1 [Compound 4-2] | 5 | 5 | 5 | 5 | 5 |  | 1 | 2 |  |  | 5 | 5 | 5 | 5 | 5 | 1 | 5 | 5 | 5
19 | CCCc1cc2c(-c3ccc(C(F)(F)F)n(C)c3=O)c(F)cc(Cl)c2o1 [Compound 4-3] | 5 | 5 | 5 | 5 | 5 |  | 1 | 2 |  |  |  |  |  |  |  |  | 5 | 5 | 5
20 | CCc1cc2c(Cl)cc(F)c(-c3ccc(C(F)(F)F)n(C)c3=O)c2o1 [Compound 5-2] | 5 | 5 | 5 | 5 | 5 |  | 0 | 2 |  |  |  |  |  |  |  |  | 5 | 5 | 5
21 | Cn1c(C(F)(F)F)ccc(-c2cc(C#N)c(Cl)cc2F)c1=O [Compound No. 1-119, 3-(4-chloro-5-cyano-2-fluorophenyl)-1-methyl-6-trifluoromethyl-2(1H)-pyridone] | 5 | 5 | 5 | 5 | 5 | 5 | 1 | 2 | 5 | 5 |  |  |  |  |  |  |  |  | 
22 | CCCC(=O)c1cc(-c2ccc(C(F)(F)F)n(C)c2=O)c(F)cc1Cl [Compound No. 1-194, 3-[4-chloro-2-fluoro-5-(1-oxobutyl)phenyl]-1-methyl-6-trifluoromethyl-2(1H)-pyridone] | 5 | 5 | 5 | 5 | 5 |  | 0 | 1 |  |  |  |  |  |  |  |  | 5 | 5 | 5
